Patent US20110230481A2, “DERIVATIVES OF TETRABROMOBENZIMIDAZOLE, A PROCESS FOR THE PREPARATION THEREOF, A PHARMACEUTICAL COMPOSITION COMPRISING THE SAME, A METHOD OF USING THE SAME, A METHOD FOR MODULATING OR REGULATING SERINE/THREONINE KINASES, AND SERINE/THREONINE KINASES MODULATING AGENT” (SELVITA S.A., priority 2009, published 2011)
Converted amounts (≈) assume the structure as drawn. Like-named read-outs stand apart in the source and are kept apart here.

Key:
PIM3 = PIM3 (Homo sapiens, UniProt Q86V86); assay: Radiometric kinase assay (HotSpot); conditions: for Selectivity for Pim-3 over CK2α: ratio of IC50 values
Experimental: (§2) Kinase assays were performed at Reaction Biology Corporation (www.reactionbiology.com, Malvern Pa.) using the “HotSpot” assay platform. This assay platform is based on a radiometric filtration binding assay and is considered as the “gold standard” to which non-radiometric methods are compared. In this assay format, the kinase reaction is performed in the presence of 32 P-γ-ATP or 33 P-γ-ATP, followed by binding of the final radioisotope labeled peptide product to filters after which unreacted phosphate is washed away and the levels of phosphorylated peptide are measured.

PIM1 = PIM1 (Homo sapiens, UniProt P11309); assay: Radiometric kinase assay (HotSpot); conditions: for Selectivity for Pim-1 over CK2α: ratio of IC50 values
Experimental: as §2

CK2α = CK2α (Homo sapiens, UniProt P68400); assay: Radiometric kinase assay (HotSpot)
Experimental: as §2

CLK1 = CLK1 (Homo sapiens, UniProt P49759); assay: Radiometric kinase assay (HotSpot)
Experimental: as §2

[1] = test system: human acute myeloid leukemia MOLM-13 cells; assay: Growth inhibition test (MTS); type: cell-based; conditions: MOLM13, 72 hours, read-out: Cytotoxicity in MTS assay (ED50)
Experimental: Ten thousand cells of acute myeloid leukemia MOLM-13 were inoculated into each well of a 96-well microplate (manufactured by Corning Corp.) using RPMI 8226 medium (culture medium) containing 10% fetal calf serum (FCS). The same day, a dimethyl sulfoxide (DMSO) solution of each test compound prepared in a concentration of 10 mmol/L was further diluted with DMSO to the desired concentrations (0.1, 0.5, 1, 2.5, 5 and 10 micromol/L), and the diluted solution was added to each well. The individual wells were further cultured in 5% carbon dioxide at 37° C. for 72 hours. After completion of the culture, 10 μl MTS (3-(4,5-Dimethyl-2-thiazolyl)-5-(carboxymethoxyphenyl)-2-(4-sulfophenyl)-2H-tetrazolium, inner salt assay (CellTiter96® AQueous One Solution Cell Proliferation Assay, Promega) was added to each well, and culturing was performed in 5% carbon dioxide at 37° C. for 2 hours. Using a microplate spectrophotometer (Synergy 2 multi-mode microplate reader (BioTek)), the absorbance of each well was measured at 490 nm. The value for cells not incorporated with a test compound was designated as 100%. By comparing these values with the absorbance difference obtained at the well in which each test compound was added, the cell viability (% viability) after treatment with the test compound was calculated.

[2] = test system: human acute promyelocytic leukemia HL-60 cells; assay: Growth inhibition test (MTS); type: cell-based; conditions: 72 hours
Experimental: (§1) Ten thousand cells of human acute promyelocytic leukemia HL-60 were inoculated into each well of a 96-well microplate (manufactured by Corning Corp.) using RPMI 8226 medium (culture medium) containing 10% fetal calf serum (FCS). The same day, a dimethyl sulfoxide (DMSO) solution of each test compound prepared in a concentration of 10 mmol/L was further diluted with DMSO to the desired concentrations (0.1, 0.5, 1, 2.5, 5 and 10 micromol/L), and the diluted solution was added to each well. The individual wells were further cultured in 5% carbon dioxide at 37° C. for 72 hours. After completion of the culture, 10 μl MTS (3-(4,5-Dimethyl-2-thiazolyl)-5-(carboxymethoxyphenyl)-2-(4-sulfophenyl)-2H-tetrazolium, inner salt assay (CellTiter96® AQueous One Solution Cell Proliferation Assay, Promega) was added to each well, and culturing was performed in 5% carbon dioxide at 37° C. for 2 hours. Using a microplate spectrophotometer (Synergy 2 multi-mode microplate reader (BioTek)), the absorbance of each well was measured at 490 nm. The value for cells not incorporated with a test compound was designated as 100%. By comparing these values with the absorbance difference obtained at the well in which each test compound was added, the cell viability (% viability) after treatment with the test compound was calculated.

[3] = test system: human chronic myelocytic leukemia K562 cells; assay: Growth inhibition test (MTS); type: cell-based; conditions: 72 hours
Experimental: as §1, with “chronic myelocytic” for “acute promyelocytic”, “K562” for “HL-60”, “Iscove's MDM” for “RPMI 8226”

[4] = test system: human acute lymphocytic leukemia E6.1 Jurkat cells; assay: Growth inhibition test (MTS); type: cell-based; conditions: 72 hours, read-out: Cytotoxicity in MTS assay (ED50)
Experimental: as §1, with “Twenty” for “Ten”, “lumphocytic” for “promyelocytic”, “E6.1 Jurkat” for “HL-60”

Solubility in pH 7.4 = conditions: phosphate buffer
Experimental: Compound stock solutions were prepared in DMSO to final concentrations of 1000 mM. For each compound studied, 12 solutions were prepared to cover concentrations from 0.001 to 1 mM. As a solvent 0.2 mM phosphate buffer (pH 7.4) was used. The final concentration of DMSO in the solutions was 1% (v/v). The solutions were left mixing for 24 hours at 37° C., 350 rpm and following incubation centrifuged for 5 minutes at 14500 rpm. The samples were then analyzed by RP HPLC using a C18 column and 0.2% solution of formic acid in water/acetonitrile mobile phase. […] The solubility was determined as the point as the point at which the concentration curve reaches plateau.

[5] = read-out: Inhibitory activity (IC50 in nM) in radiometric cell free assay, Pim-3, ATP 1 μM, peptide 20 μM
[6] = read-out: Inhibitory activity (IC50 in nM) in radiometric cell free assay, Pim-1, ATP 1 μM, peptide 5 μM
[7] = read-out: Inhibitory activity (IC50 in nM) in radiometric cell free assay, CK2α, ATP 1 μM, peptide 20 μM

Sequence of CLK1 (P49759 whole entry): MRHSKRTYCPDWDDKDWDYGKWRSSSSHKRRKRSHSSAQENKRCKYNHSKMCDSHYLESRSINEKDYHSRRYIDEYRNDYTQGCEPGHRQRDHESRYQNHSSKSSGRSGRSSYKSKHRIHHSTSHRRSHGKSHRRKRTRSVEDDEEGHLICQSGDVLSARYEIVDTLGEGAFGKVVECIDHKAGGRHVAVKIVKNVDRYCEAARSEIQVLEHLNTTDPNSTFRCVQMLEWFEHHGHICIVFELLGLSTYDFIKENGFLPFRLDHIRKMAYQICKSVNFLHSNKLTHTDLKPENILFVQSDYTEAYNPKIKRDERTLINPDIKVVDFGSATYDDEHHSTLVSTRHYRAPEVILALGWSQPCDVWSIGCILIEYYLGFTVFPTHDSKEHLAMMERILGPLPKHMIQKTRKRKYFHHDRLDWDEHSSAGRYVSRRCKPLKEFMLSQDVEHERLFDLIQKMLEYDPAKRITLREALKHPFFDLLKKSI
Sequence of PIM1 (P11309 whole entry): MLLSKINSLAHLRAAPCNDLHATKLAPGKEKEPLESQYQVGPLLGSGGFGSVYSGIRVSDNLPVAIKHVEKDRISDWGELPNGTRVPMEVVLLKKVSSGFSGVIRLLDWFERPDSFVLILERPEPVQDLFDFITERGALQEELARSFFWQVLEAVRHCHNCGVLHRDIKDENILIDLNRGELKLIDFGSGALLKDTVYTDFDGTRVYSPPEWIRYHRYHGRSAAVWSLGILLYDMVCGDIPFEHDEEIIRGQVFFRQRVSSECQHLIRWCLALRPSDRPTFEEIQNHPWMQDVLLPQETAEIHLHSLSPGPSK
Sequence of CK2α (P68400 whole entry): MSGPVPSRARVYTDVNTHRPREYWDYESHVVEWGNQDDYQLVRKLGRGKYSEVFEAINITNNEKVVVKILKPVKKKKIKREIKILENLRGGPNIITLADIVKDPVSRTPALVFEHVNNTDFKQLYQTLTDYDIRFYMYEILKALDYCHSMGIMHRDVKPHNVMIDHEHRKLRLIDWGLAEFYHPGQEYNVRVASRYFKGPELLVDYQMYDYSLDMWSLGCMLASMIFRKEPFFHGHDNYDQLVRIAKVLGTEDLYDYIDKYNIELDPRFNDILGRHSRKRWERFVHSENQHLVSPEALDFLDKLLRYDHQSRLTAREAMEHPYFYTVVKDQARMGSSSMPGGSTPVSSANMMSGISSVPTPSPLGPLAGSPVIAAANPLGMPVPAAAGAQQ

NCCCNc1nc2c(Br)c(Br)c(Br)c(Br)c2[nH]1 [Compound 11, N-(3-aminopropyl)-4,5,6,7-tetrabromo-1H-benzo[d]imidazol-2-amine]
IC50 (PIM3): 23.3 nM | Selectivity for Pim-3 over CK2α (PIM3): 43.6 | IC50 (PIM1): 4.8 nM | Selectivity for Pim-1 over CK2α (PIM1): 211.7 | IC50 (CK2α): 1020 nM | IC50 (CLK1): 177 nM | IC50 ([1]; Homo sapiens, MOLM-13): 1370 nM | Cytotoxicity in MTS assay (ED50) [2]: 6120 nM | Cytotoxicity in MTS assay (ED50) [3]: 7480 nM | IC50 ([4]; Homo sapiens): 1750 nM | solubility at 24 h (Solubility in pH 7.4): 370 µM (≈ 187 µg/mL)

Brc1c(Br)c(Br)c2[nH]c(NCCN3CCCCC3)nc2c1Br [Compound 13, 4,5,6,7-tetrabromo-N-(2-(piperidin-1-yl)ethyl)-1H-benzo[d]imidazol-2-amine]
IC50 (PIM3): 60.7 nM | Selectivity for Pim-3 over CK2α (PIM3): 37.3 | IC50 (PIM1): 23.1 nM | Selectivity for Pim-1 over CK2α (PIM1): 98.2 | IC50 (CK2α): 2260 nM | IC50 (CLK1): 594 nM | IC50 ([1]; Homo sapiens, MOLM-13): 2180 nM | Cytotoxicity in MTS assay (ED50) [2]: 3290 nM | IC50 ([4]; Homo sapiens): 1340 nM

Brc1c(Br)c(Br)c2[nH]c(NCCN3CCCC3)nc2c1Br [Compound 14, 4,5,6,7-tetrabromo-N-(2-(pyrrolidin-1-yl)ethyl)-1H-benzo[d]imidazol-2-amine]
IC50 (PIM3): 28.2 nM | Selectivity for Pim-3 over CK2α (PIM3): 29.6 | IC50 (PIM1): 43.8 nM | Selectivity for Pim-1 over CK2α (PIM1): 19.0 | IC50 (CK2α): 833 nM | IC50 ([1]; Homo sapiens, MOLM-13): 1450 nM | Cytotoxicity in MTS assay (ED50) [2]: 2040 nM | IC50 ([4]; Homo sapiens): 2650 nM | solubility at 24 h (Solubility in pH 7.4): 31 µM (≈ 16.9 µg/mL)

Brc1c(Br)c(Br)c2[nH]c(NCCN3CCOCC3)nc2c1Br [Compound 16, 4,5,6,7-tetrabromo-N-(2-morpholinoethyl)-1H-benzo[d]imidazol-2-amine]
IC50 (PIM3): 114 nM | Selectivity for Pim-3 over CK2α (PIM3): 60.1 | IC50 (PIM1): 67.7 nM | Selectivity for Pim-1 over CK2α (PIM1): 101.6 | IC50 (CK2α): 6880 nM | IC50 ([1]; Homo sapiens, MOLM-13): 4660 nM | Cytotoxicity in MTS assay (ED50) [2]: >10000 nM | IC50 ([4]; Homo sapiens): 2460 nM | solubility at 24 h (Solubility in pH 7.4): 23 µM (≈ 12.9 µg/mL)

Brc1c(Br)c(Br)c2[nH]c(N3CCNCC3)nc2c1Br [Compound 20, 4,5,6,7-tetrabromo-2-(piperazin-1-yl)-1H-benzo[d]imidazole]
IC50 (PIM3): 42 nM | Selectivity for Pim-3 over CK2α (PIM3): 3.1 | IC50 (PIM1): 76.9 nM | Selectivity for Pim-1 over CK2α (PIM1): 1.7 | IC50 (CK2α): 132 nM | IC50 ([1]; Homo sapiens, MOLM-13): 1590 nM | Cytotoxicity in MTS assay (ED50) [2]: 7880 nM | Cytotoxicity in MTS assay (ED50) [3]: 7250 nM | IC50 ([4]; Homo sapiens): 2190 nM

CN1CCN(c2nc3c(Br)c(Br)c(Br)c(Br)c3[nH]2)CC1 [Compound 21, 4,5,6,7-tetrabromo-2-(4-methylpiperazin-1-yl)-1H-benzo[d]imidazole]
IC50 (PIM3): 84.1 nM | Selectivity for Pim-3 over CK2α (PIM3): 21.7 | IC50 (PIM1): 66.1 nM | Selectivity for Pim-1 over CK2α (PIM1): 27.6 | IC50 (CK2α): 1830 nM | IC50 ([1]; Homo sapiens, MOLM-13): 1610 nM | Cytotoxicity in MTS assay (ED50) [2]: >10000 nM | IC50 ([4]; Homo sapiens): 2630 nM | solubility at 24 h (Solubility in pH 7.4): < 10 µM

Brc1c(Br)c(Br)c2c(Br)n[nH]c2c1Br [Compound K64, reference compound]
Selectivity for Pim-3 over CK2α (PIM3): 3.0 | IC50 (PIM3; [5]): 212 nM | Selectivity for Pim-1 over CK2α (PIM1): 2.1 | IC50 (PIM1; [6]): 308 nM | IC50 (CK2α; [7]): 637 nM | IC50 [1]: >10000 nM | Cytotoxicity in MTS assay (ED50) [3]: >10000 nM | IC50 [4]: >10000 nM

CN(C)c1nc2c(Br)c(Br)c(Br)c(Br)c2n1CC(=O)O [Compound K66, reference compound]
Selectivity for Pim-3 over CK2α (PIM3): 2.1 | IC50 (PIM3; [5]): 96.3 nM | Selectivity for Pim-1 over CK2α (PIM1): 1.1 | IC50 (PIM1; [6]): 194 nM | IC50 (CK2α; [7]): 206 nM | IC50 [1]: >10000 nM | Cytotoxicity in MTS assay (ED50) [3]: >10000 nM | IC50 [4]: >10000 nM

CN(C)c1nc2c(Br)c(Br)c(Br)c(Br)c2[nH]1 [DMAT, reference compound]
IC50 (PIM3; [5]): 87.3 nM | IC50 (PIM1; [6]): 64.6 nM | IC50 (CLK1; read-out: Inhibitory activity (IC50 in nM) in radiometric cell free assay, CLK1, ATP 1 μM, Myelin Basic Protein 10 μM): 211 nM | Cytotoxicity in MTS assay (ED50) [2]: >10000 nM | Cytotoxicity in MTS assay (ED50) [3]: >10000 nM | IC50 [4]: 8180 nM

Brc1c(Br)c(Br)c2[nH]nnc2c1Br [TBB, reference compound]
IC50 (PIM3; [5]): 269 nM | IC50 (PIM1; [6]): 1840 nM | IC50 [1]: >10000 nM | Cytotoxicity in MTS assay (ED50) [3]: >10000 nM | IC50 [4]: >10000 nM

Brc1c(Br)c(Br)c2[nH]cnc2c1Br [TBI, reference compound]
IC50 (PIM3; [5]): 2940 nM | IC50 (PIM1; [6]): 1670 nM | IC50 [1]: 9720 nM | Cytotoxicity in MTS assay (ED50) [3]: >10000 nM | IC50 [4]: >10000 nM
